Our source for the inhibition values is patent US10696651B2, “Heterocyclic compound” (Takeda Pharmaceutical Company Limited, priority 2016, dated 2020).

The target in the test is T1, human GCN2 full-length protein (Homo sapiens, UniProt Q9P2K8).
T1 construct: purchased Carna Biosciences, Inc
As to the kind of experiment: GCN2 enzyme inhibition assay (LanthaScreen TR-FRET). Format: biochemical. The note with it: GCN2 enzyme inhibitory activity at compound concentration of 3 μM, read-out: inhibitory rate. The method, then: GCN2 enzyme was preserved at -70° C. and used. The GCN2 enzyme inhibitory activity of the test compound was measured by the LanthaScreenTR-FRET (Time Resolved Fluorescence Resonance Energy Transfer) method (manufactured by ThermoFisher). […] Then, GCN2 enzyme solution diluted with the assay buffer was added by 2 μL to each well. The enzyme solution was not added to a part of the wells to give a control group. After incubation at room temperature for 1 hr, 570 μM ATP solution containing 390 nM […] physiological protein substrate (ThermoFisher) was added by 2 μL. After reaction at room temperature for 1 hr, TR-FRET Dilution Buffer (ThermoFisher) containing 4 nM Terbium-labeled anti-elF2alpha [[…]] antibody (ThermoFisher) dissolved therein was added by 2 μL to each well. After standing at room temperature for 1 hr, time decomposition fluorescence measurement was performed on platereader Envision (manufactured by PerkinElmer).
(In general: TR-FRET usually uses a lanthanide donor and a delayed reading to cut background.)

Structures can show the parent of a compound that is named as a salt. Where two headings read alike, the source gives them in different places.

T1 sequence (Q9P2K8 whole entry): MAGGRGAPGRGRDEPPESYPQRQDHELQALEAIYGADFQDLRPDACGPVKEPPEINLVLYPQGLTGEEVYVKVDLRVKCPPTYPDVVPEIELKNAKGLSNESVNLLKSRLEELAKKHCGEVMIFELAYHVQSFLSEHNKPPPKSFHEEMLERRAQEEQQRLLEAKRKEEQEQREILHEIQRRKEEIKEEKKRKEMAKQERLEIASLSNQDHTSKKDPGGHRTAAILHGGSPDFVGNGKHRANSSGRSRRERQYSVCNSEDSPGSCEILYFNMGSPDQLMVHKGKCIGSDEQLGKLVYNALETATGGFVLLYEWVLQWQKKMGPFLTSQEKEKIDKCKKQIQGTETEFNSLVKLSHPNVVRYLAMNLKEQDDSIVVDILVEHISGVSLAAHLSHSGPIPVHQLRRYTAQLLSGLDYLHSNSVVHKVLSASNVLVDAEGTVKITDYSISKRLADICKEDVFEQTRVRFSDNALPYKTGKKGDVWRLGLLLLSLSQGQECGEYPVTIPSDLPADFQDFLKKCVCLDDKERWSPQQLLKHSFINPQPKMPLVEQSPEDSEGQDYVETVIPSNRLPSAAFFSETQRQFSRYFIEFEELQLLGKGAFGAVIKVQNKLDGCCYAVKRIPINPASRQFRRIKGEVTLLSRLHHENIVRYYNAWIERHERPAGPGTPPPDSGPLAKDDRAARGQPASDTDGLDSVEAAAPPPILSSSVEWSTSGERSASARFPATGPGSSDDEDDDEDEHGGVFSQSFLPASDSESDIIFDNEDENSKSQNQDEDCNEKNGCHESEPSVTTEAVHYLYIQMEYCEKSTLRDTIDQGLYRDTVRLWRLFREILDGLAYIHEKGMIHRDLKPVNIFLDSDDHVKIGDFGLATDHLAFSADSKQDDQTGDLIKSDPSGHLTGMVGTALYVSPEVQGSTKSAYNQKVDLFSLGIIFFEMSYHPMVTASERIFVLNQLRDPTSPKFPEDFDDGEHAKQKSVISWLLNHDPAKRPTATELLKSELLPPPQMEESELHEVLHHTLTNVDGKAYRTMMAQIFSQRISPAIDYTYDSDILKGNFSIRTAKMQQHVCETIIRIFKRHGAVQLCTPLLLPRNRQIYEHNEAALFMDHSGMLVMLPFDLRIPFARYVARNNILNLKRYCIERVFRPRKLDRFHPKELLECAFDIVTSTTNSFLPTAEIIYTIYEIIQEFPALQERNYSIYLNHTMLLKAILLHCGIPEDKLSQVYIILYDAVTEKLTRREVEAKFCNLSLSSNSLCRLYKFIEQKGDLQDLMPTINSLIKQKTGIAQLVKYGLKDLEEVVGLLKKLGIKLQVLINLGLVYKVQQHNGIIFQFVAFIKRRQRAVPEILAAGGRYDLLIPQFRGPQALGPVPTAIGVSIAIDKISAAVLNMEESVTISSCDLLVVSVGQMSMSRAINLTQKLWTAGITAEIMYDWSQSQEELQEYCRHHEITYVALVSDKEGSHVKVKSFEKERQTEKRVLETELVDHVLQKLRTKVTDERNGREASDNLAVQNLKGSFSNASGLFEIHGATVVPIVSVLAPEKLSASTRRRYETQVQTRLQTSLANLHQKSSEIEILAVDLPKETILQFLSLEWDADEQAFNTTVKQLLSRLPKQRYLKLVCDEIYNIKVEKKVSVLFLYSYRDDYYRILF

For the compound `Cc1cc(C)cc(S(=O)(=O)Nc2ccc(F)c(C#Cc3cnc4[nH]ncc4c3)c2F)c1` [Example 111, N-(2,4-difluoro-3-(1H-pyrazolo[3,4-b]pyridin-5-ylethynyl)phenyl)-3,5-dimethylbenzenesulfonamide TFA Salt], the inhibition at 3 µM (Table 3-1) is 97%.
Consider `COc1ncc(Cl)cc1S(=O)(=O)Nc1ccc(Cl)c(C#Cc2cnc(N)nc2)c1F` [Example 124, N-(3-((2-aminopyrimidin-5-yl)ethynyl)-4-chloro-2-fluorophenyl)-5-chloro-2-methoxypyridine-3-sulfonamide], for which the inhibition at 3 µM (Table 3-1) was 100%.
For `Nc1ncc(C#Cc2c(F)ccc(NS(=O)(=O)c3cc(Cl)ccc3Cl)c2F)c(N)n1` [Example 34, 2,5-dichloro-N-(3-((2,4-diaminopyrimidin-5-yl)ethynyl)-2,4-difluorophenyl)benzenesulfonamide], the inhibition at 3 µM (Table 3-1) was found to be 98%.
For the compound `COc1ncc(Cl)cc1S(=O)(=O)Nc1ccc(F)c(C#Cc2cnc(N)c(C)n2)c1F` [Example 110, N-(3-((5-amino-6-methylpyrazin-2-yl)ethynyl)-2,4-difluorophenyl)-5-chloro-2-methoxypyridine-3-sulfonamide], for the setting “Table 3-1”, the inhibition at 3 µM is 100%.
As for `Nc1ncc(C#Cc2c(F)ccc(NS(=O)(=O)c3cc(Cl)cc4c3OCC4)c2F)cn1` [Example 9, N-(3-((2-aminopyrimidin-5-yl)ethynyl)-2,4-difluorophenyl)-5-chloro-2,3-dihydro-1-benzofuran-7-sulfonamide], for the setting “Table 3-1”, the inhibition at 3 µM is 99%.
Regarding `Nc1ncc(C#Cc2c(F)ccc(NS(=O)(=O)c3cc(Cl)ccc3C(F)(F)F)c2F)cn1` [Example 6, N-(3-((2-aminopyrimidin-5-yl)ethynyl)-2,4-difluorophenyl)-5-chloro-2-(trifluoromethyl)benzenesulfonamide], the inhibition at 3 µM (Table 3-1) was 99%.
For `COc1ncc(Cl)cc1S(=O)(=O)Nc1ccc(F)c(C#Cc2cnc(N)nn2)c1F` [Example 109, N-(3-((3-amino-1,2,4-triazin-6-yl)ethynyl)-2,4-difluorophenyl)-5-chloro-2-methoxypyridine-3-sulfonamide], the inhibition at 3 µM (Table 3-1) came to 99%.
Still for that read-out and setting: in the case of `Nc1ncc(C#Cc2c(F)ccc(NS(=O)(=O)c3cc(Cl)cc(Cl)c3)c2F)cn1` [Example 27, N-(3-((2-aminopyrimidin-5-yl)ethynyl)-2,4-difluorophenyl)-3,5-dichlorobenzenesulfonamide] it was 95%; in that of `COc1ncc(Cl)cc1S(=O)(=O)Nc1ccc(F)c(C#Cc2cnc(NC(C)(C)CO)nc2)c1F` [Example 108, 5-chloro-N-(2,4-difluoro-3-((2-((1-hydroxy-2-methylpropan-2-yl)amino)pyrimidin-5-yl)ethynyl)phenyl)-2-methoxypyridine-3-sulfonamide], 99%.
In the case of `O=S(=O)(Nc1ccc(F)c(C#Cc2cnc(NCCCO)nc2)c1F)c1cc(Cl)ccc1Cl` [Example 28, 2,5-dichloro-N-(2,4-difluoro-3-((2-((3-hydroxypropyl)amino)pyrimidin-5-yl)ethynyl)phenyl)benzenesulfonamide TFA Salt], the inhibition at 3 µM (Table 3-1) was determined as 99%.
For `COc1ncc(Cl)cc1S(=O)(=O)Nc1cccc(C#Cc2cnc(N)nc2)c1Cl` [Example 126, N-(3-((2-aminopyrimidin-5-yl)ethynyl)-2-chlorophenyl)-5-chloro-2-methoxypyridine-3-sulfonamide], the inhibition at 3 µM (Table 3-1) was 100%.
For the compound `Nc1ncc(C#Cc2c(F)ccc(NS(=O)(=O)c3cc(Cl)ccc3OC(F)(F)F)c2F)cn1` [Example 12, N-(3-((2-aminopyrimidin-5-yl)ethynyl)-2,4-difluorophenyl)-5-chloro-2-(trifluoromethoxy)benzenesulfonamide], the inhibition at 3 µM (Table 3-1) worked out at 99%.
Take `O=S(=O)(Nc1ccc(F)c(C#Cc2cnc(NC3CC3)nc2)c1F)c1cc(Cl)ccc1Cl` [Example 11, 2,5-dichloro-N-(3-((2-(cyclopropylamino)pyrimidin-5-yl)ethynyl)-2,4-difluorophenyl)benzenesulfonamide TFA Salt]: the inhibition at 3 µM (Table 3-1) was 99%.
Consider `O=S(=O)(Nc1ccc(F)c(C#Cc2cnc(N[C@H]3CC[C@H](O)CC3)nc2)c1F)c1cc(Cl)ccc1Cl` [Example 32, 2,5-dichloro-N-(2,4-difluoro-3-((2-((trans-4-hydroxycyclohexyl)amino)pyrimidin-5-yl)ethynyl)phenyl)benzenesulfonamide TFA Salt], for which, under “Table 3-1”, the inhibition at 3 µM is 99%.
`COc1ncc(Cl)cc1S(=O)(=O)Nc1cccc(C#Cc2cnc(N)nc2)c1F` [Example 123, N-(3-((2-aminopyrimidin-5-yl)ethynyl)-2-fluorophenyl)-5-chloro-2-methoxypyridine-3-sulfonamide]: the inhibition at 3 µM (Table 3-1) came to 100%.
Turning to `C[C@H](CO)Nc1ncc(C#Cc2c(F)ccc(NS(=O)(=O)c3cc(Cl)ccc3Cl)c2F)cn1` [Example 22, 2,5-dichloro-N-(2,4-difluoro-3-((2-(((2R)-1-hydroxypropan-2-yl)amino)pyrimidin-5-yl)ethynyl)phenyl)benzenesulfonamide TFA Salt], under “Table 3-1”, the inhibition at 3 µM turned out to be 99%.
Consider `COc1c(CO)cc(Cl)cc1S(=O)(=O)Nc1ccc(F)c(C#Cc2cnc(N)c(C)n2)c1F` [Example 131, N-(3-((5-amino-6-methylpyrazin-2-yl)ethynyl)-2,4-difluorophenyl)-5-chloro-3-(hydroxymethyl)-2-methoxybenzenesulfonamide], for which the inhibition at 3 µM (Table 3-2) was determined as 99%.
For `COc1ncc(Cl)cc1S(=O)(=O)Nc1ccc(F)c(C#Cc2cnc(N)nc2)c1Cl` [Example 125, N-(3-((2-aminopyrimidin-5-yl)ethynyl)-2-chloro-4-fluorophenyl)-5-chloro-2-methoxypyridine-3-sulfonamide], where the note is “Table 3-1”, the inhibition at 3 µM came to 100%.
In the case of `Nc1ncc(C#Cc2c(F)ccc(NS(=O)(=O)c3cc(Cl)cnc3C(F)(F)F)c2F)cn1` [Example 136, N-(3-((2-aminopyrimidin-5-yl)ethynyl)-2,4-difluorophenyl)-5-chloro-2-(trifluoromethyl)pyridine-3-sulfonamide], under “Table 3-2”, the inhibition at 3 µM is 99%.
As for `Cc1ccc(C)c(S(=O)(=O)Nc2ccc(F)c(C#Cc3cnc4[nH]ncc4c3)c2F)c1` [Example 112, N-(2,4-difluoro-3-(1H-pyrazolo[3,4-b]pyridin-5-ylethynyl)phenyl)-2,5-dimethylbenzenesulfonamide TFA Salt], under “Table 3-1”, the inhibition at 3 µM was 99%.
In the case of `COc1ncc(Cl)cc1S(=O)(=O)Nc1ccc(F)c(C#Cc2cnc(NC(C)C)nc2)c1F` [Example 106, 5-chloro-N-(2,4-difluoro-3-((2-(isopropylamino)pyrimidin-5-yl)ethynyl)phenyl)-2-methoxypyridine-3-sulfonamide], the inhibition at 3 µM (Table 3-1) is 99%.
For `Cc1ncc(Cl)cc1S(=O)(=O)Nc1ccc(F)c(C#Cc2cnc(N)nc2)c1F` [Example 3, N-(3-((2-aminopyrimidin-5-yl)ethynyl)-2,4-difluorophenyl)-5-chloro-2-methylpyridine-3-sulfonamide], the inhibition at 3 µM (Table 3-1) amounted to 99%.
In the case of `Nc1ncc(C#Cc2c(F)ccc(NS(=O)(=O)c3cc(Cl)ccc3OC(F)F)c2F)cn1` [Example 21, N-(3-((2-aminopyrimidin-5-yl)ethynyl)-2,4-difluorophenyl)-5-chloro-2-(difluoromethoxy)benzenesulfonamide], under “Table 3-1”, the inhibition at 3 µM is 99%.
